Consider one substance from US20240352069A1, “SYNTHETIC PEPTIDE, AND COSMETIC COMPOSITION OR PHARMACEUTICAL COMPOSITION AND APPLICATION THEREOF” (SHENZHEN WINKEY TECHNOLOGY CO., LTD., priority 2021, published 2024).

One test concerns TNF-α. Nature of the test: Anti-inflammatory repair experiment, LPS-stimulated RAW264.7 cells, ELISA TNF-α. The class given is cell-based, mouse. An excerpt:
(§1) Mouse mononuclear macrophages (RAW264.7 cells).
(§2) Peptide (2), tested at a concentration of 100 ppm.
(§3) • a) Take RAW264.7 cells in good exponential growth phase, add 0.25% trypsin digestion solution, digest to make adherent cells fall off, count 1-4×10^6 cells/mL, and make cell suspension; • b) Appropriately dilute 100,000 cells/well of cell suspension and inoculate it on a 6-well plate, and establish an LPS-stimulated inflammation model when the cells reached about 80% confluent. Set blank control group (control), LPS group, dexamethasone group (DXM), polypeptide group. Add 1000 μL culture medium to the blank control group; add 200 ng/mL LPS to the LPS group, add culture medium to 1000 μL; add 200 ng/mL LPS and 50 ng/mL dexamethasone to the dexamethasone group, add culture medium to 1000 μL; add 200 ng/mL LPS and peptide (2) to the polypeptide group, add culture medium to 1000 μL (final test concentration of peptide is 100 ppm). […] The OD value of each well was sequentially measured at 450 nm with a microplate reader within 15 min after the reaction was terminated. […]
A general note: An ELISA detects its analyte on a solid surface through an enzyme-linked reagent.

Test [1] deals with HaCaT cells. Nature of the test: Scratch test (cell migration). Particulars: 24 hours after scratch; peptides 100 ppm, EGF 50 U/mL; vs normal control group. The class given is cell-based, human. On the procedure: (§4) Human keratinocytes (HaCaT) were purchased from the Kunming Cell Bank of the Type Culture Collection Committee of the Chinese Academy of Sciences.
The cryopreserved HaCaT cells were cultured, subcultured to about 5 passages according to the ratio of 1:2, and the cells with better growth were selected as the experimental objects. Cells were seeded in a 12-well plate at a density of 200,000 cells/well, with 2 mL of cell suspension in each well. After the cells adhered to the wall, the medium was replaced with 0.5% to 1% fetal bovine serum to maintain the cells for 24 hours to synchronize them. change. Scratch with a sterilized pipette tip, wash off the dropped cells with PBS, add the sample to be tested, continue to incubate in a 37° C., 5% CO2 incubator, and place it under an optical microscope after 24 hours to analyze the wound healing area.
The cell scratch migration test can reflect the proliferation and repair ability of the cells.

The subject of another test is IL-6. Nature of the test: Anti-inflammatory repair experiment, LPS-stimulated RAW264.7 cells, ELISA IL-6. The test is classed as cell-based, mouse. The note with it: 100 ppm, 200 ng/mL LPS, 48 h, vs LPS group.
Text: as §1, §2, §3

Test [2] deals with HaCaT cells. Briefly: Promoting cell adhesion test (MTT after three-dimensional force). Particulars: 12.5, 25, 50, 100 ppm coated plate, vs normal control group. The test is classed as cell-based, human. On the procedure:
as §4
Dissolve with PBS solution.
The cryopreserved HaCaT human cuticle cells were cultured, subcultured at a ratio of 1:2 to about 5 passages, and the cells with better growth were selected as the experimental objects.
The sample to be tested was added to a 96-well plate at a rate of 20 μL/well, and dried overnight in a constant temperature oven at 37° C. […] Set the detection wavelength to 490 nm, the reference wavelength to 630 nm, and use a microplate reader to read the OD value.
By selecting HaCaT cells, plate them in a drug-coated 96-well plate, and after incubation and a period of three-dimensional force, the cells with strong adhesion can be maintained on the 96-well plate. By performing MTT quantitative analysis on the live cells on the plate, that is, the effect of the drug on cell adhesion can be evaluated to determine whether the peptide of the present invention can improve cell elasticity. After three-dimensional force action, the more living cells remained on the 96-well plate, the greater the measured OD value, indicating the stronger the adhesion of the cells.

On to “H-Ala-Pro-Phe-Arg-Met-Gly-Ile-Met-Thr-Thr-Asn-OH (H-APFRMGIMTTN-OH) [Peptide (2)]”, for which, in the test on TNF-α (100 ppm vs 50 ng/mL dexamethasone, TNF-α, IL-6 and IL-8), the “anti-inflammatory effect compared with dexamethasone” value was “equivalent to the positive drug dexamethasone”. For the same substance, the “expression of TNF-α” value in the test on TNF-α (100 ppm, 200 ng/mL LPS, 48 h, vs LPS group) is “significantly down-regulated”. In the test with HaCaT cells [1], the “scratch spacing (proliferation and migration)” value is “shorter than that of the normal control group”. In addition, the “expression of IL-6” value with IL-6 is reported as “significantly down-regulated”. In the test on HaCaT cells [2], the “adhesion ability of HaCaT cells” value is recorded as “could improve the adhesion ability of HaCaT cells”.
